Half-life data for four compounds are collected here from ChEMBL document CHEMBL1145013, “Studies on the mechanisms of activation of indolequinone phosphoramidate prodrugs” (J Med Chem, 2003).

As a reminder, the half-life is the time in which the quantity being followed falls by half.

The nature of data set [1]: Half life in presence of glutathione. In kind it is ADME. To be noted: solution containing glutathione.
Data set [2] in a line: Half life in presence of sodium dimethyldithiocarbamate. In kind it is ADME. The conditions noted are these: solution containing sodium dimethyldithiocarbamate.

As to `COC1=CC(=O)c2c(c(COP(N)(=O)N(CCBr)CCBr)cn2C)C1=O` (stereo not drawn), the half-life in data set [1] came out at 35 min; in data set [2], 14 min.
The corresponding values for `COC1=CC(=O)c2c(cc(COP(N)(=O)N3CCOCC3)n2C)C1=O` (stereo not drawn) are 716 min and 659 min.
With `COC1=CC(=O)c2c(c(COP(N)(=O)N3CCOCC3)cn2C)C1=O` (stereo not drawn), the half-life was found to be 83 min in data set [1] and 34 min in data set [2].
The corresponding values for `COC1=CC(=O)c2c(cc(COP(N)(=O)N(CCBr)CCBr)n2C)C1=O` (stereo not drawn) are 653 min and 26 min.
